{"source": "patent US5559025A", "about": "(priority 1991, dated 1996)", "type_in_all_cases": "biochemical", "key": {"HRV2 2A proteinase [1]": {"target": "T1, HRV2 2A proteinase (Human rhinovirus 2, UniProt P04936)"}, "HRV2 2A proteinase [2]": {"target": "T1, HRV2 2A proteinase", "details": "for cleavability by HRV2 2A (in words): trans-cleavage assay, 34° C., up to 32 minutes"}, "HRV2 2A proteinase [3]": {"target": "T1, HRV2 2A proteinase", "assay": "Competition of non-cleavable or slightly cleavable peptides with P89 cleaving"}, "HRV2 2A proteinase [4]": {"target": "T1, HRV2 2A proteinase", "assay": "Km determination with peptide substrate P89 (trans-cleavage assays)", "details": "peptide substrate P89, 15° C., 50 to 500 μmol/l, repeated three times with various 2A preparations", "experimental": "[…] For competitive or inhibitory studies, an additional 5 μl of solution containing the substance for competition or inhibition are added. The reaction is stopped by adding an equal volume of a 0.5M HClO4 solution. The samples are cooled to 0° C. for 10 minutes or frozen overnight at -20° C. After centrifugation (Eppendorf centrifuge, 10 min, 4° C.) an equal volume of a 1.4M K2 HPO4 solution is added. The samples are left to stand for 5 minutes at ambient temperature and the precipitate is separated off by centrifuging. […] The reaction products are detected by UV absorption at 214 and 280 nm. The course of the reaction over a period of time (% cleavage of the peptide substrate) is determined by \"reverse phase\" HPLC. The area of the newly formed peptide peak corresponding to the quantity of the carboxy- and amino terminal cleavage products is determined for each case and compared with the area of the uncleaved P89. The cleavage products are determined either by comigration with the corresponding reference peptides and amino acid analysis or by protein sequencing (Hunkapillar and Hood, 1983, loc. cit.). […]\nIn order to identify the Km value for the Wild type substrate P89 a set of trans-cleavage assays are carried out at 15° C. with various P89 substrate concentrations (between 50 and 500 μmol/l). […] For each substrate concentration the reaction speed was determined (% cleavage of P89). […]"}, "[5]": {"details": "inhibitor added before start of reaction, repeated three times"}}, "note": "“Also recorded” adds a separate entry of the source. Where two headings read alike, the source gives them in different places. *1 amine or outer side, *2 acyl side, *3 side chain or, on linkers, in order; H or OH if unused. Where a SMILES comes first, the peptide text is derived from it. CO = O=C([*:1])[*:2]", "data": [{"compound": "CC(=O)N[C@@H](CC(C)C)C(=O)N[C@@H](CC(C)C)C(=O)N[C@H](C=O)CCCNC(=N)N", "note": "[Leupeptine]", "values": [{"measurement": "effect on the activity of 2A relative to peptide P89", "setting": "HRV2 2A proteinase [1]; [5]", "value": "ineffectiveness"}]}, {"compound": "CC(C)C[C@H](NC(=O)N[C@H](C(=O)N[C@@H](CCC(N)=O)C(=O)N[C@@H](C)C=O)[C@@H]1CCNC(=N)N1)C(=O)O", "note": "[elastatinal]", "values": [{"measurement": "effect on the activity of 2A relative to peptide P89", "setting": "HRV2 2A proteinase [1]; [5]", "value": "highly effective"}]}, {"compound": "Ac-TRPIITTAG-NH2 [WTN9]", "values": [{"measurement": "% cleavage compared with P89", "setting": "HRV2 2A proteinase [2]", "value": 10, "unit": "%"}, {"measurement": "cleavability by HRV2 2A (in words)", "setting": "HRV2 2A proteinase [2]", "value": "sufficient for a cleavage"}]}, {"compound": "TRPIITTPSDMYVH [AB2, deleted Wild type substrate, missing cleavage site]", "values": [{"measurement": "cleavability by HRV2 2A (in words)", "setting": "HRV2 2A proteinase [2]", "value": "No cleaving (nor any alternative) is observed; also recorded: No cleavage (nor any alternative cleavage) was observed; also recorded: cannot be cleaved"}, {"measurement": "ability to act as competitor/inhibitor of P89 cleaving", "setting": "HRV2 2A proteinase [3]", "value": "became competitive; also recorded: behaved competitively; also recorded: competitive inhibitors"}]}, {"compound": "TRPIITTNGPSDMYV [G5, Ala for Asn at position P1]", "values": [{"measurement": "cleavability by HRV2 2A (in words)", "setting": "HRV2 2A proteinase [2]", "value": "dramatically reduced cleavability"}, {"measurement": "ability to act as competitor/inhibitor of P89 cleaving", "setting": "HRV2 2A proteinase [3]", "value": "became competitive; also recorded: behaved competitively"}]}, {"compound": "c1cnc2c(c1)ccc1cccnc12", "note": "[1,10-phenanthrolene]", "values": [{"measurement": "effect on the activity of 2A relative to peptide P89", "setting": "HRV2 2A proteinase [1]; [5]", "value": "a certain inhibiting effect at higher concentrations"}]}, {"compound": "chymostatin", "values": [{"measurement": "effect on the activity of 2A relative to peptide P89", "setting": "HRV2 2A proteinase [1]; [5]", "value": "highly effective"}]}, {"compound": "TRPIITNAGPSDMYV [B8, Thr for Asn at position P2]", "values": [{"measurement": "ability to act as competitor/inhibitor of P89 cleaving", "setting": "HRV2 2A proteinase [3]", "value": "became competitive; also recorded: behaved competitively"}]}, {"compound": "CC(C)CC(NC(=O)C1OC1C(=O)O)C(=O)NCCCCNC(=N)N", "note": "(stereo not drawn) [E-64]", "values": [{"measurement": "effect on the activity of 2A relative to peptide P89", "setting": "HRV2 2A proteinase [1]; [5]", "value": "no effect"}]}, {"compound": "Ac-ITTAGPSDMYVH-NH2 [D]", "values": [{"measurement": "cleavability by HRV2 2A (in words)", "setting": "HRV2 2A proteinase [2]", "value": "fall in cleavability of one order of magnitude; also recorded: reduction in the cleavability by one order of magnitude"}]}, {"compound": "CC(C)[C@H](NC(=O)[C@H](CCCNC(=N)N)NC(=O)N[C@@H](Cc1ccccc1)C(=O)O)C(=O)N[C@H](C=O)CCCNC(=N)N", "note": "[antipain] ({Phe-CO}-Arg-Val-Arg-aldehyde)", "values": [{"measurement": "effect on the activity of 2A relative to peptide P89", "setting": "HRV2 2A proteinase [1]; [5]", "value": "highly effective"}]}, {"compound": "Cc1ccc(S(=O)(=O)N[C@@H](Cc2ccccc2)C(=O)CCl)cc1", "note": "[TPCK, Tosylphenylalanylchloromethylketone]", "values": [{"measurement": "effect on the activity of 2A relative to peptide P89", "setting": "HRV2 2A proteinase [1]; [5]", "value": "only effective at higher concentrations"}]}, {"compound": "O[C@H](CS)[C@H](O)CS", "note": "(racemic) [DTT, Dithiothreitol]", "values": [{"measurement": "effect on the activity of 2A relative to peptide P89", "setting": "HRV2 2A proteinase [1]; [5]", "value": "no effect"}]}, {"compound": "CCN1C(=O)C=CC1=O", "note": "[N-ethylmaleimide]", "values": [{"measurement": "effect on the activity of 2A relative to peptide P89", "setting": "HRV2 2A proteinase [1]; [5]", "value": "strongly inhibit"}]}, {"compound": "N=C(N)c1ccc(CS(=O)(=O)F)cc1", "note": "[APMSF, 4-(Amidinophenyl)methanesulphonylfluoride]", "values": [{"measurement": "effect on the activity of 2A relative to peptide P89", "setting": "HRV2 2A proteinase [1]; [5]", "value": "no activity"}]}, {"compound": "Ac-IITTAGPSDM-NH2 [P145, IITTAGPSDM]", "values": [{"measurement": "cleavability by HRV2 2A (in words)", "setting": "HRV2 2A proteinase [2]", "value": "cannot be cleaved"}, {"measurement": "ability to act as competitor/inhibitor of P89 cleaving", "setting": "HRV2 2A proteinase [3]", "value": "became competitive; also recorded: behaved competitively; also recorded: competitive inhibitors"}]}, {"compound": "O=c1oc(Cl)c(Cl)c2ccccc12", "note": "[3,4-dichloroisocumarin]", "values": [{"measurement": "effect on the activity of 2A relative to peptide P89", "setting": "HRV2 2A proteinase [1]; [5]", "value": "no activity"}]}, {"compound": "Cc1ccc(S(=O)(=O)N[C@@H](CCCCN)C(=O)CCl)cc1", "note": "[TLCK, Tosyllysylchloromethylketone]", "values": [{"measurement": "effect on the activity of 2A relative to peptide P89", "setting": "HRV2 2A proteinase [1]; [5]", "value": "only effective at higher concentrations"}]}, {"compound": "N[C@@H](CS)C(=O)O", "note": "[cysteine]", "values": [{"measurement": "effect on the activity of 2A relative to peptide P89", "setting": "HRV2 2A proteinase [1]; [5]", "value": "no effect"}]}, {"compound": "NC(=O)CI", "note": "[iodacetamide]", "values": [{"measurement": "effect on the activity of 2A relative to peptide P89", "setting": "HRV2 2A proteinase [1]; [5]", "value": "strongly inhibit"}]}, {"compound": "acetyl-TRPIITTA*GPSDMYVH-NH2 (Ac-TRPIITTAGPSDMYVH-NH2; not fully specified (residue 8); printed as acetyl-TRPIITTA*GPSDMYVH-NH2) [P89, reference compound]", "values": [{"measurement": "cleavability by HRV2 2A (in words)", "setting": "HRV2 2A proteinase [2]", "value": "specifically cleaved"}, {"measurement": "Km", "setting": "HRV2 2A proteinase [4]", "value": 540, "unit": "µM"}]}, {"compound": "TRIITSAGPSDMYV [B4, Thr for Ser at position P2]", "values": [{"measurement": "ability to act as competitor/inhibitor of P89 cleaving", "setting": "HRV2 2A proteinase [3]", "value": "became competitive; also recorded: behaved competitively"}]}, {"compound": "O=C(O)CN(CCN(CC(=O)O)CC(=O)O)CC(=O)O", "note": "[EDTA]", "values": [{"measurement": "effect on the activity of 2A relative to peptide P89", "setting": "HRV2 2A proteinase [1]", "value": "a certain inhibiting effect at higher concentrations"}]}, {"compound": "Ac-ITTAGPSD-NH2 [WTD8, ITTAGPSD]", "values": [{"measurement": "cleavability by HRV2 2A (in words)", "setting": "HRV2 2A proteinase [2]", "value": "cannot be cleaved"}, {"measurement": "ability to act as competitor/inhibitor of P89 cleaving", "setting": "HRV2 2A proteinase [3]", "value": "became competitive; also recorded: behaved competitively; also recorded: competitive inhibitors"}]}]}
